Experimental data reported in article PMC10805800 (Cell Discovery, 2024).

Columns and labels:
Type in all cases: binding
[1] = molecular target: T1, LRRK2 (Leucine-rich repeat kinase 2) (Homo sapiens, UniProt Q5S007); experiment: cryo-EM structure at […] Å; also ADP-Glo kinase inhibition (RCKWm)
T1 construct: full-length LRRK2

[2] = molecular target: T2, LRRK2 (Leucine-rich repeat kinase 2) (Homo sapiens, UniProt Q5S007, M1732R); experiment: cryo-EM structure at […] Å; also ADP-Glo kinase inhibition
T2 construct: LRRK2^RCKWm (ROC-COR-KIN-WD40, without ARM-ANK-LRR domains)
T2 sequence (Q5S007 1327-2527 M1732R): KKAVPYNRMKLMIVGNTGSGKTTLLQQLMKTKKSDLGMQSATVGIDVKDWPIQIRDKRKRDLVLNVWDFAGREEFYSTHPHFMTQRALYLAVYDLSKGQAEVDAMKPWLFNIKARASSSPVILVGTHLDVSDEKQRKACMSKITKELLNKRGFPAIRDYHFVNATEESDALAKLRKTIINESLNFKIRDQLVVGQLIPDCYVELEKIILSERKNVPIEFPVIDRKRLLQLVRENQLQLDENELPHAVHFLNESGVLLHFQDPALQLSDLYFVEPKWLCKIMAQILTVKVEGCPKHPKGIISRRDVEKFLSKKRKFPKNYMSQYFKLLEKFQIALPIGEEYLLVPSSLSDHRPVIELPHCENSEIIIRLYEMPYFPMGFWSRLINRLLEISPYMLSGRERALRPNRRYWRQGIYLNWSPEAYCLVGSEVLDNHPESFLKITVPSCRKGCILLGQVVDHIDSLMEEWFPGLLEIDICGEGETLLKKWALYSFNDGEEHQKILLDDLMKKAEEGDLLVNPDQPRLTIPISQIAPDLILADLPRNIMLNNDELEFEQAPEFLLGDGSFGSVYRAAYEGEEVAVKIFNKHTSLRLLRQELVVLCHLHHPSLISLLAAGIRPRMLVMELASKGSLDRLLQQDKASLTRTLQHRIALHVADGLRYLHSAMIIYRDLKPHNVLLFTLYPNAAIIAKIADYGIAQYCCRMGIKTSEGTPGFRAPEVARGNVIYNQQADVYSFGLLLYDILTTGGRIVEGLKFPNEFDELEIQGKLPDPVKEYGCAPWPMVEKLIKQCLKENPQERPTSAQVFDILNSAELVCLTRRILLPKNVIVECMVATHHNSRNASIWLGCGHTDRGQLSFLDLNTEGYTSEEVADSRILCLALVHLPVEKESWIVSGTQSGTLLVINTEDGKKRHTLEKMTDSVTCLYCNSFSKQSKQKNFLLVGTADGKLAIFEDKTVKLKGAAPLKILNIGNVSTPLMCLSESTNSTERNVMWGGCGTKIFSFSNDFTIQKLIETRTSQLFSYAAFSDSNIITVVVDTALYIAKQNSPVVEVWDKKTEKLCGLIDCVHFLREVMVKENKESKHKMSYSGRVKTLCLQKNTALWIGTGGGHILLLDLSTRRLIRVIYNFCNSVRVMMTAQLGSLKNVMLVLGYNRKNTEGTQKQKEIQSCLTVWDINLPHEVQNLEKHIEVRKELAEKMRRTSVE

[3] = molecular target: T1, LRRK2 (Leucine-rich repeat kinase 2); experiment: cryo-EM structure at […] Å; also ADP-Glo kinase inhibition (RCKWm); remark: listed apart in the source

T1 sequence (Q5S007 whole entry): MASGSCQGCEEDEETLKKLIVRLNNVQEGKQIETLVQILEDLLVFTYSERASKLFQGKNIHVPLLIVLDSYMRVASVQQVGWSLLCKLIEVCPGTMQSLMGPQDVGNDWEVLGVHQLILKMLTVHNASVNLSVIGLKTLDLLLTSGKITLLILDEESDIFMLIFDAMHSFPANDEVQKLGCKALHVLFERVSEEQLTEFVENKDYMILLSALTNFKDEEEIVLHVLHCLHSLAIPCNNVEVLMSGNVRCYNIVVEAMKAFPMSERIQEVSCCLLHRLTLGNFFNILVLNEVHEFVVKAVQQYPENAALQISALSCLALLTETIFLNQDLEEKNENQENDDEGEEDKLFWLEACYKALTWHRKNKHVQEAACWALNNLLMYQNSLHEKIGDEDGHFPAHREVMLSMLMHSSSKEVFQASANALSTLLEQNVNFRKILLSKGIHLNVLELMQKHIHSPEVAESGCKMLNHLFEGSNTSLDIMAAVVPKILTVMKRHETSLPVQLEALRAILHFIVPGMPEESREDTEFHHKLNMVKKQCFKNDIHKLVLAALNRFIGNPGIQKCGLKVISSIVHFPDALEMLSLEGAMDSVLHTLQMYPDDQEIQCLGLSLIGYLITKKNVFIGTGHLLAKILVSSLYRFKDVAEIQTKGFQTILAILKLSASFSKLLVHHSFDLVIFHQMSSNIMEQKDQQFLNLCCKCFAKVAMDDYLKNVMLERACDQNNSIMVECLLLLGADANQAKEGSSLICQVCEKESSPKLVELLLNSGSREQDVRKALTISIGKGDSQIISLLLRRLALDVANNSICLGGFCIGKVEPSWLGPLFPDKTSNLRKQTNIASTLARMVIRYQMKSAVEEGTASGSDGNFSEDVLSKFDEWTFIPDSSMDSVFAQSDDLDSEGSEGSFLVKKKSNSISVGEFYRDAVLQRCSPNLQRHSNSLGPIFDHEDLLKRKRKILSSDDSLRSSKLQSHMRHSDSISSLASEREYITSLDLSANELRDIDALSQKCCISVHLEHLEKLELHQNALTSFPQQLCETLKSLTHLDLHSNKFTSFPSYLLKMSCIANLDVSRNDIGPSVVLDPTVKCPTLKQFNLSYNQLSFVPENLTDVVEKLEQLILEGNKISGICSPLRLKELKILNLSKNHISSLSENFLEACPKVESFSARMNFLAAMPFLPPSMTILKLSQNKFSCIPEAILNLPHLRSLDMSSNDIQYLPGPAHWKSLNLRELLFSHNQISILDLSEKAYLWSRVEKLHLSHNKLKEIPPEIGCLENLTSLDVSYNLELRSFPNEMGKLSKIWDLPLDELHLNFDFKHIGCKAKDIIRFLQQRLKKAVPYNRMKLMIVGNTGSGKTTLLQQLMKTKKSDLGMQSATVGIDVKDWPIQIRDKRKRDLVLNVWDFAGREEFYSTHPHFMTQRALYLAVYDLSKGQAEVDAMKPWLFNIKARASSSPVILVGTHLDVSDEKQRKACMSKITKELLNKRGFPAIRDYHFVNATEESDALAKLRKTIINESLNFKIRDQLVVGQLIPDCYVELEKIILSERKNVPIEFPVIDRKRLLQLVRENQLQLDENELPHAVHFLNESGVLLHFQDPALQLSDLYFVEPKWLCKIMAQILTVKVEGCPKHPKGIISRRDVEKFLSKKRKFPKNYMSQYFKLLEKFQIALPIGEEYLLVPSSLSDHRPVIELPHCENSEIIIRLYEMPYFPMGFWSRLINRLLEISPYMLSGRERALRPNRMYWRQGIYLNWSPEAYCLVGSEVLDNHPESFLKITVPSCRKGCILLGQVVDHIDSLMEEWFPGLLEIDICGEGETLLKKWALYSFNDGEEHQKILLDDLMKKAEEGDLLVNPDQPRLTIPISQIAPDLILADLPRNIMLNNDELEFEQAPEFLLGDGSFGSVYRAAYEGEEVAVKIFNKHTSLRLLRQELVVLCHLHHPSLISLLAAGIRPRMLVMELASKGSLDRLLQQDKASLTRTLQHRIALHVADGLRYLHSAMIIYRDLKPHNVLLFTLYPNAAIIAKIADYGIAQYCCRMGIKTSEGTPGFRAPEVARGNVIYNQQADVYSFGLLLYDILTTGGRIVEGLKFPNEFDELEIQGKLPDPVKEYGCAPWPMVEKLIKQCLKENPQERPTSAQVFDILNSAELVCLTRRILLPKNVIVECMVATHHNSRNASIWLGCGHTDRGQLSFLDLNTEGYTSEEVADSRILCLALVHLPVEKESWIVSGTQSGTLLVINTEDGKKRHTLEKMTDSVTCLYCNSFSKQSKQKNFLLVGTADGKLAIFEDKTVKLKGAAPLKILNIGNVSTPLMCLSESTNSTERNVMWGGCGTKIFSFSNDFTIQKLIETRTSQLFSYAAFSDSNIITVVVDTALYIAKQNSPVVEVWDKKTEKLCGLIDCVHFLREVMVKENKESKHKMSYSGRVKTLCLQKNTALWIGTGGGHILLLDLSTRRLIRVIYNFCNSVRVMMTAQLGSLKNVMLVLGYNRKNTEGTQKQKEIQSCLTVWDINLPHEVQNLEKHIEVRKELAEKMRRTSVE

Cc1ccc(C(=O)Nc2ccc(CN3CCN(C)CC3)c(C(F)(F)F)c2)cc1C#Cc1cnc2[nH]ncc2c1 [GZD-824]
cryo-EM structure at 3.6 Å; also ADP-Glo kinase inhibition (RCKWm) [1]: GZD-824 and ponatinib are analogous compounds and bind to LRRK2 in a similar manner

COc1cc(C(=O)N2CCC(N3CCN(C)CC3)CC2)ccc1Nc1ncc2c(n1)N(C)c1ccccc1C(=O)N2C [LRRK2-IN-1]
cryo-EM structure at 3.5 Å; also ADP-Glo kinase inhibition [2]: 8U7H (LRRK2^RCKWm–GNE-7915) and 8FO7 (LRRK2^RCKWm–LRRK2-IN-1)

CNC(=O)c1cc(Oc2ccc(NC(=O)Nc3cc(C(C)(C)C)nn3-c3ccc4ncccc4c3)c(F)c2)ccn1 [rebastinib]
cryo-EM structure at 3.7 Å; also ADP-Glo kinase inhibition (RCKWm) [3]: 8U8B (LRRK2–rebastinib), 8U8A (LRRK2–ponatinib), 8U7L (LRRK2–GZD-824)
